≈ marks a conversion by molar mass, not a printed value.
Legend:
Assay type in all cases: cell-based
[1] = tested on: Candida albican ATCC 62342; assay: In vitro antifungal activity (MIC80), Candida albican ATCC 62342; conditions: Candida, ATCC62342; Table 2, 62342; read-out: Minimal inhibitory concentration (MIC80)
Procedure: (§1) In vitro antifungal activities of the inventive antifungal compounds were evaluated using test strains including Candida albican (ATCC 90873, 204276, 62342, 64124, 64550, 96901, MYA-573, MYA-574, MYA-575, MYA-576, MYA-1003) and Aspergillus fumigatus (ATCC 16424). Test samples and positive control samples were prepared by dissolving the inventive compounds and comparative compounds, i.e., amphotericin B, fluconazole and itraconazole, in DMSO, respectively, and each successively diluted with medium to obtain test and positive control solutions having test compound concentrations of 0.125 μg/ml to a maximum concentration not generating turbidity. Minimal inhibitory concentration (MIC80) of each compound was determined as the lowest concentration of the test compounds required to reduce growth by 80% relative to a control strain not treated.
(§2) 1) Test strain: Candida albican ATCC 90873, 204276, 62342, 64124, 64550, 96901, MYA-573, MYA-574, MYA-575, MYA-576, MYA-1003, and Aspergillus fumigatus ATCC 16424 were commercially obtained from The American Type Culture Collection (ATCC) and subcultured in CHEMON Co. Ltd. (amphotericin B was commercially purchased from Sigma, and fluconazole and itraconazole were prepared according to methods described in British Patent No. 2,099,818; and U.S. Pat. No. 4,267,179, respectively).
(§3) 2) Medium and culture condition: Candida albican was cultured in Sabourad Dextrose Agar, YM Agar or Potato Dextrose Agar according to ATCC information at a temperature of 37° C., 35° C., 30° C. or 25° C. Aspergillus fumigatus was cultured in Malt Extract Agar or Potato Dextrose Agar at a temperature ranging from 24 to 27° C.
(§4) 3) Preparation of test samples: the inventive compounds and comparative compounds were each diluted with DMSO to obtain 1 to 2 ml of a test sample in a concentration of 100-folds of the determining maximum concentration (256 μg/ml).
(§5) The test samples were each successively diluted with RPMI 1640 to obtain test solutions having concentrations of […] in a 12×75 mm sterilized disposable culture tube. The final concentration of DMSO was adjusted to […] (v/v).
(§6) 5) Preparation of strain solution and inoculation
(§7) Candida albican strains were each subcultured in Sabourad Dextrose Agar, YM Agar or Potato Dextrose Agar medium at 35° C. for 2˜3 days. In the case of yeasts, a single colony was taken from prominent colonies and suspended in 0.85% sterile physiological saline solution and the turbidity of the suspension was adjusted to 80˜82% at 530 nm, and then diluted 50-fold with RPMI 1640 medium to 1.0×10^3˜5.0×10^3 CFU/ml. The turbidity of fungi was adjusted to 80˜82% and the suspension was diluted 50-fold to […]. Aspergillus fumigatus strains were subcultured in Malt Extract Agar for 7˜10 days, and a single colony was taken from prominent colonies and suspended in 0.85% sterile physiological saline solution and the suspension was adjusted to 0.108 at 530 nm, and then diluted 1000-fold with RPMI 1640 medium to 0.4×10^2˜5×10^4 CFU/ml. The turbidity of fungi was adjusted to 80˜82% and the suspension was diluted 50-fold to 0.4102˜0.5104 CFU/ml.
(§8) The strain solutions thus obtained were each seeded into a sterilized 96-well microplate, 0.1 ml of each test solution were added thereto, and […] of alamarblue was treated to each well (Biosource, #DAL1100). This procedure was repeated 2 times.
(§9) Minimal inhibitory concentration (MIC80) of each compound was determined as the lowest concentration of the test compounds required to reduce growth by 80% relative to a control strain not treated.

[2] = tested on: Candida albican ATCC 96901; assay: In vitro antifungal activity (MIC80), Candida albican ATCC 96901; conditions: Candida, ATCC96901; Table 2, ATCC 96901; read-out: Minimal inhibitory concentration (MIC80)
Procedure: as §1, §2, §3, §4, §5, §6, §7, §8, §9

[3] = tested on: Candida albican ATCC 64550; assay: In vitro antifungal activity (MIC80), Candida albican ATCC 64550; conditions: Candida, ATCC64550; Table 2, 64550; read-out: Minimal inhibitory concentration (MIC80)
Procedure: as §1, §2, §3, §4, §5, §6, §7, §8, §9

[4] = tested on: Candida albican ATCC 90873; assay: In vitro antifungal activity (MIC80), Candida albican ATCC 90873; conditions: Candida, ATCC90873; Table 2, ATCC 90873; read-out: Minimal inhibitory concentration (MIC80)
Procedure: as §1, §2, §3, §4, §5, §6, §7, §8, §9

[5] = tested on: Candida albican ATCC MYA-574; assay: In vitro antifungal activity (MIC80), Candida albican ATCC MYA-574; conditions: Candida; Table 2, MYA 574; read-out: Minimal inhibitory concentration (MIC80)
Procedure: as §1, §2, §3, §4, §5, §6, §7, §8, §9

[6] = tested on: Candida albican ATCC MYA-575; assay: In vitro antifungal activity (MIC80), Candida albican ATCC MYA-575; conditions: Candida; Table 2, MYA 575; read-out: Minimal inhibitory concentration (MIC80)
Procedure: as §1, §2, §3, §4, §5, §6, §7, §8, §9

[7] = tested on: Candida albican ATCC MYA-576; assay: In vitro antifungal activity (MIC80), Candida albican ATCC MYA-576; conditions: Candida; Table 2, MYA 576; read-out: Minimal inhibitory concentration (MIC80)
Procedure: as §1, §2, §3, §4, §5, §6, §7, §8, §9

[8] = tested on: Candida albican ATCC MYA-1003; assay: In vitro antifungal activity (MIC80), Candida albican ATCC MYA-1003; conditions: Candida; Table 2, MYA 1003; read-out: Minimal inhibitory concentration (MIC80)
Procedure: as §1, §2, §3, §4, §5, §6, §7, §8, §9

[9] = tested on: Candida albican ATCC MYA-573; assay: In vitro antifungal activity (MIC80), Candida albican ATCC MYA-573; conditions: Candida; Table 2, MYA 573; read-out: Minimal inhibitory concentration (MIC80)
Procedure: as §1, §2, §3, §4, §5, §6, §7, §8, §9

[10] = tested on: Candida albican ATCC 64124; assay: In vitro antifungal activity (MIC80), Candida albican ATCC 64124; conditions: Candida, ATCC64124; Table 2, 64124; read-out: Minimal inhibitory concentration (MIC80)
Procedure: as §1, §2, §3, §4, §5, §6, §7, §8, §9

Compound | MIC80 [1] | MIC80 [2] | MIC80 [3] | MIC80 [4] | MIC80 [5] | MIC80 [6] | MIC80 [7] | MIC80 [8] | MIC80 [9] | MIC80 [10]
C[C@@H](N1CCN(c2cccc(N(C)CCCN3CCOCC3)n2)CC1)[C@](O)(Cn1cncn1)c1ccc(F)cc1F [Example 27, (2R,3R)-2-(2,4-difluorophenyl)-3-(4-(6-(methyl(3-morpholinopropyl)amino)pyridin-2-yl)piperazin-1-yl)-1-(1H-1,2,4-triazol-1-yl)butan-2-ol] | 2 µg/mL (≈ 3.5 µM) | 16 µg/mL (≈ 28 µM) | 4 µg/mL (≈ 7.01 µM) | 0.25 µg/mL (≈ 0.438 µM) | 8 µg/mL (≈ 14 µM) | 1 µg/mL (≈ 1.75 µM) | 0.5 µg/mL (≈ 0.876 µM) | 64 µg/mL (≈ 112 µM) | 4 µg/mL (≈ 7.01 µM) | 32 µg/mL (≈ 56.1 µM)
C[C@@H](N1CCN(c2cccc(N(C)CCc3cccs3)n2)CC1)[C@](O)(Cn1cncn1)c1ccc(F)cc1F [Example 28, (2R,3R)-2-(2,4-difluorophenyl)-3-(4-(6-(methyl(2-(thiophen-2-yl)ethyl)amino)pyridin-2-yl)piperazin-1-yl)-1-(1H-1,2,4-triazol-1-yl)butan-2-ol] | > 128 µg/mL | > 128 µg/mL | > 128 µg/mL | 0.25 µg/mL (≈ 0.452 µM) | > 128 µg/mL | 1 µg/mL (≈ 1.81 µM) | 1 µg/mL (≈ 1.81 µM) | > 128 µg/mL | > 128 µg/mL | > 128 µg/mL
C[C@@H](N1CCN(c2ccc(OCc3ccccc3)nc2)CC1)[C@](O)(Cn1cncn1)c1ccc(F)cc1F [Example 29, (2R,3R)-3-(4-(6-(benzyloxy)pyridin-3-yl)piperazin-1-yl)-2-(2,4-difluorophenyl)-1-(1H-1,2,4-triazol-1-yl)butan-2-ol] | 0.5 µg/mL (≈ 0.96 µM) | > 128 µg/mL | 1 µg/mL (≈ 1.92 µM) | 0.125 µg/mL (≈ 0.24 µM) | 1 µg/mL (≈ 1.92 µM) | 0.25 µg/mL (≈ 0.48 µM) | 0.125 µg/mL (≈ 0.24 µM) | > 128 µg/mL | 1 µg/mL (≈ 1.92 µM) | 4 µg/mL (≈ 7.68 µM)

Now from value to compound:

MIC80 [1] | MIC80 [2] | MIC80 [3] | MIC80 [4] | MIC80 [5] | MIC80 [6] | MIC80 [7] | MIC80 [8] | MIC80 [9] | MIC80 [10] | Compound
1 µg/mL (≈ 2.06 µM) | 32 µg/mL (≈ 66 µM) | 1 µg/mL (≈ 2.06 µM) | 0.125 µg/mL (≈ 0.258 µM) | 4 µg/mL (≈ 8.26 µM) | 0.125 µg/mL (≈ 0.258 µM) | 0.125 µg/mL (≈ 0.258 µM) | > 128 µg/mL | 1 µg/mL (≈ 2.06 µM) | 32 µg/mL (≈ 66 µM) | C[C@@H](N1CCN(c2ccc(OCC3CC3)nc2)CC1)[C@](O)(Cn1cncn1)c1ccc(F)cc1F [Example 30, (2R,3R)-3-(4-(6-(cyclopropylmethoxy)pyridin-3-yl)piperazin-1-yl)-2-(2,4-difluorophenyl)-1-(1H-1,2,4-triazol-1-yl)butan-2-ol]
1 µg/mL (≈ 2.01 µM) | 4 µg/mL (≈ 8.02 µM) | 1 µg/mL (≈ 2.01 µM) | 0.125 µg/mL (≈ 0.251 µM) | 4 µg/mL (≈ 8.02 µM) | 0.25 µg/mL (≈ 0.501 µM) | 0.25 µg/mL (≈ 0.501 µM) | > 128 µg/mL | 2 µg/mL (≈ 4.01 µM) | 64 µg/mL (≈ 128 µM) | C[C@@H](N1CCN(c2ccc(OC3CCCC3)nc2)CC1)[C@](O)(Cn1cncn1)c1ccc(F)cc1F [Example 31, (2R,3R)-3-(4-(6-(cyclopentyloxy)pyridin-3-yl)piperazin-1-yl)-2-(2,4-difluorophenyl)-1-(1H-1,2,4-triazol-1-yl)butan-2-ol]
1 µg/mL (≈ 2.06 µM) | 8 µg/mL (≈ 16.4 µM) | 1 µg/mL (≈ 2.06 µM) | 0.125 µg/mL (≈ 0.257 µM) | 4 µg/mL (≈ 8.22 µM) | 0.5 µg/mL (≈ 1.03 µM) | 0.125 µg/mL (≈ 0.257 µM) | > 128 µg/mL | 1 µg/mL (≈ 2.06 µM) | 4 µg/mL (≈ 8.22 µM) | CCCCOc1ccc(N2CCN([C@H](C)[C@](O)(Cn3cncn3)c3ccc(F)cc3F)CC2)cn1 [Example 32, (2R,3R)-3-(4-(6-(butyloxy)pyridin-3-yl)piperazin-1-yl)-2-(2,4-difluorophenyl)-1-(1H-1,2,4-triazol-1-yl)butan-2-ol]
2 µg/mL (≈ 4.23 µM) | 64 µg/mL (≈ 135 µM) | 4 µg/mL (≈ 8.46 µM) | 0.125 µg/mL (≈ 0.265 µM) | 4 µg/mL (≈ 8.46 µM) | 0.125 µg/mL (≈ 0.265 µM) | 0.125 µg/mL (≈ 0.265 µM) | > 128 µg/mL | 2 µg/mL (≈ 4.23 µM) | 64 µg/mL (≈ 135 µM) | CC(C)Oc1ccc(N2CCN([C@H](C)[C@](O)(Cn3cncn3)c3ccc(F)cc3F)CC2)cn1 [Example 33, (2R,3R)-2-(2,4-difluorophenyl)-3-(4-(6-(isopropyloxy)pyridin-3-yl)piperazin-1-yl)-1-(1H-1,2,4-triazol-1-yl)butan-2-ol]

Source: US20100144712A1 (priority 2007, published 2010)
